Like-named read-outs stand apart in the source and are kept apart here. Marks after values point to notes of the source that are not given here.
Assays:
A549 cells = experiment: Cell growth inhibition assay (MTT); format: cell-based, Human; settings: Homo sapiens, read-out: IC50 cell viability
Procedure: (§1) Human NSCLC cells NCI-H1975, HCC827, Calu-3 and A549were obtained from the Cell Culture Center of the Institute of Basic Medical Sciences, Chinese Academy of Medical Sciences. NCI-H1781 cell line was purchased from Cobioer Biosciences Co., Ltd. With the exception of Calu-3, all cell lines were cultured in RPMI-1640 medium (Gibco, USA) supplemented with 10% fetal bovine serum (FBS) (Gibco, USA). Calu-3 was maintained in Minimum Essential Medium (MEM) supplemented with 10% FBS (Gibco, USA), 5% 100 mM Sodium Pyruvate (Gibco, USA), and 5% Non-Essential Amino Acids Solution (NEAA; Gibco, USA). All cells were incubated at 37 °C with 5% CO2 in air.
(§2) According to the previous report, 5 × 10^3 cells/100 μL were seeded in culture medium in every well in a 96-well plate for 24 hours. […] After 72 h of treatment, MTT (Beyotime Biotechnology, China) was added at a final concentration of […] and incubated for 3 hours. Following that, DMSO was used to dissolve the formazan product and the Molecular Devices SpectraMax M5 microplate reader (Molecular Devices, USA) was used to measure absorbance at 570 nm and IC50 was calculated.

Her2 Wild Type = biological target: T1, Her2 Wild Type (Homo sapiens, UniProt P04626); experiment: In vitro kinase assay; format: biochemical; settings: WT; n = 2
T1 construct: purchased Invitrogen (Shanghai) Co., Ltd
T1 sequence (P04626 23-1255): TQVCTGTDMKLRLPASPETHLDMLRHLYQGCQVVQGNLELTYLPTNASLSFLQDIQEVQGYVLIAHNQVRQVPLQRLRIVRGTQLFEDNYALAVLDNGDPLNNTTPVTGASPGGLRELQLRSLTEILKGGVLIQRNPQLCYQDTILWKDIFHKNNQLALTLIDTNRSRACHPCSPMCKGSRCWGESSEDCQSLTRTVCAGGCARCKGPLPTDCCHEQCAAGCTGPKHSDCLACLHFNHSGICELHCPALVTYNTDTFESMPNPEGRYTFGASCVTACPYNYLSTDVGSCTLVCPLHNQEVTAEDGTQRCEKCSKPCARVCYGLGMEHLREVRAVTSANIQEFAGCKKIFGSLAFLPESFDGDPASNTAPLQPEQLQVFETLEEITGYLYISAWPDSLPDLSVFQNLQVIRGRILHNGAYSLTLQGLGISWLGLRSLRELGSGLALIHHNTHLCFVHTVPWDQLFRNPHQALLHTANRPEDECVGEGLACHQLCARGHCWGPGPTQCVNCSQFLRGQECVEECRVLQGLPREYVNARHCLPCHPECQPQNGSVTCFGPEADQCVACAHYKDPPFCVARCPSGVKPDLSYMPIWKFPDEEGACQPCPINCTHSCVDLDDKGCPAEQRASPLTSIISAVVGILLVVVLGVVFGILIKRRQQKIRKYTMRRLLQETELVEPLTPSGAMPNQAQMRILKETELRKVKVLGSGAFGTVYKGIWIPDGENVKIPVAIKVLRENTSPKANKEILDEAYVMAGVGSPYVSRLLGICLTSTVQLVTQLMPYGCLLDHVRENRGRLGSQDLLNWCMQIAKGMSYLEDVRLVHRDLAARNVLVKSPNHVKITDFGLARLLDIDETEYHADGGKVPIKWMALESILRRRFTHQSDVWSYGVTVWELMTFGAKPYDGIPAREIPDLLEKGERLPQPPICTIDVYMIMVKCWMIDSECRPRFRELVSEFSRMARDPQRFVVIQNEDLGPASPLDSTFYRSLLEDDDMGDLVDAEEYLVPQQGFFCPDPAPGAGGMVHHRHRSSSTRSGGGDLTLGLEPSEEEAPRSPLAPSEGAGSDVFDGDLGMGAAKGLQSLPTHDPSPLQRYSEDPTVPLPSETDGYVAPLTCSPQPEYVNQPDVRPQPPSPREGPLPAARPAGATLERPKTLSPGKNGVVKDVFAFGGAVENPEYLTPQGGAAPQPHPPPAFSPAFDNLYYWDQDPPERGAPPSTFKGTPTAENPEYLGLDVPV

HCC827 cells [1] = experiment: Cell growth inhibition assay (MTT); format: cell-based; settings: Homo sapiens, read-out: IC50 cell viability
Procedure: Human NSCLC cells NCI-H1975, HCC827, Calu-3 and A549were obtained from the Cell Culture Center of the Institute of Basic Medical Sciences, Chinese Academy of Medical Sciences. […] Calu-3 was maintained in Minimum Essential Medium (MEM) supplemented with 10% FBS (Gibco, USA), 5% 100 mM Sodium Pyruvate (Gibco, USA), and 5% Non-Essential Amino Acids Solution (NEAA; Gibco, USA). All cells were incubated at 37 °C with 5% CO2 in air.
According to the previous report[29], 5 × 10^3 cells/100 μL were seeded in culture medium in every well in a 96-well plate for 24 hours. […] After 72 h of treatment, MTT (Beyotime Biotechnology, China) was added at a final concentration of 5 mg/ml and incubated for 3 hours. Following that, DMSO was used to dissolve the formazan product and the Molecular Devices SpectraMax M5 microplate reader (Molecular Devices, USA) was used to measure absorbance at 570 nm and IC50 was calculated.

NCI-H1975 cells [2] = experiment: Cell growth inhibition assay (MTT); format: cell-based; settings: Homo sapiens, read-out: IC50 cell viability
Procedure: as §1, §2

NCI-H1781 cells = experiment: Cell growth inhibition assay (MTT); format: cell-based; settings: Homo sapiens, read-out: IC50 cell viability
Procedure: as §1, §2

Calu-3 cells = experiment: Cell growth inhibition assay (MTT); format: cell-based; settings: Homo sapiens, read-out: IC50 cell viability
Procedure: as §1, §2

Calu-3 xenograft = experiment: Nude mouse xenograft model; settings: for Body weight (g) Begin / IR (%) inhibition rate of tumor growth (tumor weight) / Body weight (g) End: Calu-3 xenograft; for IR (%) inhibition rate of tumor growth (tumor weight): 15 days
Procedure: (§4) HCC827, NCI-H1975, and Calu-3 cells were resuspended in serum-free culture medium and mixed in a 1:1 ratio with Matrigel (BD Biosciences, USA) before subcutaneous injection at the right scapula of each animal (4 × 10^6 cells/mouse). The mice were randomized into groups when the average tumor volume reached 100–200 mm^3. […] The inhibition rate (IR) of tumor growth was calculated using the following equation: IR (%) = (A − B)/A × 100, where A and B are the mean tumor weights of the vehicle control and treatment groups, respectively.

NCI-H1975 xenograft = experiment: Nude mouse xenograft model; settings: for Body weight (g) Begin / IR (%) inhibition rate of tumor growth (tumor weight) / Body weight (g) End: NCI-H1975 xenograft; for IR (%) inhibition rate of tumor growth (tumor weight): 15 days
Procedure: as §4

HCC827 xenograft = experiment: Nude mouse xenograft model; settings: for number of p-EGFR and Ki67 positive cells in tumor tissues: HCC827 xenograft model, IHC, vs control group
Procedure: as §4

Her4 Wild Type = biological target: T2, Her4 Wild Type (Homo sapiens, UniProt Q15303); experiment: In vitro kinase assay; format: biochemical; settings: WT; n = 2
T2 construct: purchased Invitrogen (Shanghai) Co., Ltd
T2 sequence (Q15303 26-1308): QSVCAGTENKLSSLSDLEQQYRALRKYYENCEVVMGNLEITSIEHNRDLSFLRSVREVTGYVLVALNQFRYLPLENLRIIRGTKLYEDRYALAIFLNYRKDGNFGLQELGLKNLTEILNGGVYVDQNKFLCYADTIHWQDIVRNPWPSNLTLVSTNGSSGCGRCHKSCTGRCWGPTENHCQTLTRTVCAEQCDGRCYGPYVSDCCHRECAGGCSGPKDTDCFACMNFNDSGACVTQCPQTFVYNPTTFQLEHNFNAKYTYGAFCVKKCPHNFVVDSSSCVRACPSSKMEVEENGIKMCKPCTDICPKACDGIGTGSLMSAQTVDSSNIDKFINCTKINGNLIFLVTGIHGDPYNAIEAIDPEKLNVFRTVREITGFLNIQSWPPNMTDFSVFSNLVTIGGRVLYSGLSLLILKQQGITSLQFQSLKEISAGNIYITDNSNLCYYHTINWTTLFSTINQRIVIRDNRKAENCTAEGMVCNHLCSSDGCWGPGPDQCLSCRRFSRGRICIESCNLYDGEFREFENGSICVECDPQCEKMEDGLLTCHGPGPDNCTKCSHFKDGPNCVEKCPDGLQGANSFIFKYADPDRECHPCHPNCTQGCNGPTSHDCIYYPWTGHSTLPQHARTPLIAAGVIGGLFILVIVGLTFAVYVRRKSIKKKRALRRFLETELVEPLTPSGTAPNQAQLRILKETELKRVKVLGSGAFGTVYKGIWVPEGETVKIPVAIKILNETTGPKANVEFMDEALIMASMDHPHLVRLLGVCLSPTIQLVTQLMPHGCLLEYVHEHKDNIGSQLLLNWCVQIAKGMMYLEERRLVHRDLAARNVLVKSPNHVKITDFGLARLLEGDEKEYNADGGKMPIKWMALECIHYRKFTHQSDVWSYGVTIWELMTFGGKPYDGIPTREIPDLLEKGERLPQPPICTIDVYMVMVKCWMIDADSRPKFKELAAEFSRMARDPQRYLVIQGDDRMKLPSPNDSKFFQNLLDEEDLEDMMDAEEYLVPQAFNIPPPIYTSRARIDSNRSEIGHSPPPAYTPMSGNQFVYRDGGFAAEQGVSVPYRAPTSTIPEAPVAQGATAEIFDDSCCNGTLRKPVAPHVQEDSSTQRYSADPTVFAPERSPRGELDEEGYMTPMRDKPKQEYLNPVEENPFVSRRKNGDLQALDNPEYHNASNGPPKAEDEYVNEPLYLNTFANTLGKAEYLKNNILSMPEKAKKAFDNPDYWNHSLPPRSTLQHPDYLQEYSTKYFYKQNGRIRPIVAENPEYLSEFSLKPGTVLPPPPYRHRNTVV

NCI-H1975 cells [3] = experiment: Western blot assay; format: cell-based, Human; settings: 24 h, Western blotting
Procedure: (§3) The BCA reagent kit (Beyotime Biotechnology) was used to measure protein content. The cell extracts (50 μg protein) were loaded onto a 4–20% ExpressPlus™ PAGE pre-cast gel (GenScript, China) for electrophoresis before transferring to a PVDF membrane. The membranes were blocked with 5% skimmed milk (prepared using Tris-buffered saline containing 0.05% Tween-20) before incubation with primary antibodies at 4 °C overnight. The membranes were then incubated with HRP-conjugated secondary antibodies at room temperature. The Alphaview SA system and software (version 3.4.0, ProteinSimple, USA) was used for quantitative analysis of the optical density of the bands.

HCC827 cells [4] = experiment: Western blot assay; format: cell-based, Human; settings: 24 h, Western blotting
Procedure: as §3

Compound: C=CC(=O)N1CCC(Oc2cc3c(Nc4ccc(Cl)c(Cl)c4F)ncnc3cc2OC)CC1 [Poziotinib]
- IC50 (A549 cells; A549, K-ras mutation (G12S), MTT, 72 h, mean ± s.d. (n = 3)): > 1000 nM
- IC50 (Her2 Wild Type): 0.07 nM
- IC50 (HCC827 cells [1]; HCC827, EGFR (Del E746_A750), MTT, 72 h, mean ± s.d. (n = 3)): 1.72 ± 0.32 nM
- IC50 (NCI-H1975 cells [2]; NCI-H1975, EGFR (L858R/T790M), MTT, 72 h, mean ± s.d. (n = 3)): 8.78 ± 3.03 nM
- IC50 (NCI-H1781 cells; NCI-H1781, HER-2 (G776V, Cins), MTT, 72 h, mean ± s.d. (n = 3)): 6.17 ± 0.42 nM
- IC50 (Calu-3 cells; Calu-3, HER-2 (WT, amplified), MTT, 72 h, mean ± s.d. (n = 3)): 2.47 ± 0.52 nM
- Body weight (g) Begin (Calu-3 xenograft; 2.5 mg/kg/day group): 17.72 ± 0.73 g
- IR (%) inhibition rate of tumor growth (tumor weight) (Calu-3 xenograft; 2.5 mg/kg/day oral): 77.16^*** %
- Body weight (g) End (Calu-3 xenograft; 2.5 mg/kg/day oral): 16.36 ± 0.92 g
- Body weight (g) Begin (NCI-H1975 xenograft; 2.5 mg/kg/day group): 16.44 ± 0.69 g
- IR (%) inhibition rate of tumor growth (tumor weight) (NCI-H1975 xenograft; 2.5 mg/kg/day oral): 98.18^*** %
- Body weight (g) End (NCI-H1975 xenograft; 2.5 mg/kg/day oral): 14.62 ± 0.67 g
- Body weight (g) Begin (HCC827 xenograft; HCC827 xenograft, 1 mg/kg/day group): 17.55 ± 0.96 g
- IR (%) inhibition rate of tumor growth (tumor weight) (HCC827 xenograft; HCC827 xenograft, 1 mg/kg/day oral, 15 days): 93.25^*** %
- Body weight (g) End (HCC827 xenograft; HCC827 xenograft, 1 mg/kg/day oral): 17.21 ± 0.90 g
- IC50 (Her4 Wild Type): 0.18 nM

Compound: C=CC(=O)Nc1cc(Nc2nccc(-c3cn(C)c4ccccc34)n2)c(OC)cc1N(C)CCN(C)C [Osimertinib]
- IC50 (A549 cells; A549, 72 h): > 1000 nM
- EGFR signaling (NCI-H1975 cells [3]): inhibited
- Phosphorylation of EGFR and its downstream AKT and ERK (HCC827 cells [4]): inhibited
- IC50 (HCC827 cells [1]; HCC827, 72 h): 1.09 ± 0.22 nM
- IC50 (NCI-H1781 cells; NCI-H1781, 72 h): 842 ± 34 nM
- IC50 (Calu-3 cells; Calu-3, 72 h): 470 ± 7.3 nM
- tumor growth (in words) (Calu-3 xenograft; Calu-3 xenograft models, vs. control group): did not show any significant inhibitory activity
- Body weight (g) Begin (Calu-3 xenograft; 5 mg/kg/day group): 17.42 ± 0.82 g
- IR (%) inhibition rate of tumor growth (tumor weight) (Calu-3 xenograft; 5 mg/kg/day oral): 20.21%
- Body weight (g) End (Calu-3 xenograft; 5 mg/kg/day oral): 18.24 ± 0.78 g
- number of p-EGFR and Ki67 positive cells in tumor tissues (NCI-H1975 xenograft; NCI-H1975 xenograft model, IHC): strongly decreased
- Body weight (g) Begin (NCI-H1975 xenograft; 10 mg/kg/day group): 16.55 ± 0.82 g
- IR (%) inhibition rate of tumor growth (tumor weight) (NCI-H1975 xenograft; 10 mg/kg/day oral): 98.60^*** %
- Body weight (g) End (NCI-H1975 xenograft; 10 mg/kg/day oral): 16.23 ± 1.31 g
- number of p-EGFR and Ki67 positive cells in tumor tissues (HCC827 xenograft): strongly decreased
- Body weight (g) Begin (HCC827 xenograft; HCC827 xenograft, 2.5 mg/kg/day group): 17.57 ± 1.03 g
- Body weight (g) End (HCC827 xenograft; HCC827 xenograft, 2.5 mg/kg/day oral): 19.13 ± 0.78 g
- IR (%) inhibition rate of tumor growth (tumor weight) (HCC827 xenograft; mouse, in vivo, po, 2.5 mg/kg/day): 91.19^*** %

Compound: C#Cc1cccc(Nc2ncnc3cc(OCCOC)c(OCCOC)cc23)c1 [Erlotinib]
- IC50 (A549 cells; A549, 72 h): > 1000 nM
- Phosphorylation of EGFR and its downstream AKT and ERK (HCC827 cells [4]): inhibited
- IC50 (NCI-H1975 cells [2]; NCI-H1975, 72 h): > 1000 nM
- IC50 (NCI-H1781 cells; NCI-H1781, 72 h): > 1000 nM
- IC50 (Calu-3 cells; Calu-3, 72 h): > 1000 nM
- tumor growth (in words) (NCI-H1975 xenograft; NCI-H1975 xenograft models, vs. control group): did not inhibit tumor growth
- Body weight (g) Begin (NCI-H1975 xenograft; 100 mg/kg/day group): 16.63 ± 1.02 g
- IR (%) inhibition rate of tumor growth (tumor weight) (NCI-H1975 xenograft; 100 mg/kg/day oral): 29.78%
- Body weight (g) End (NCI-H1975 xenograft; 100 mg/kg/day oral): 14.54 ± 1.10 g
- number of p-EGFR and Ki67 positive cells in tumor tissues (HCC827 xenograft): strongly decreased
- decrease of body weight of animals (HCC827 xenograft; HCC827 xenograft models): more than 20%
- Body weight (g) Begin (HCC827 xenograft; HCC827 xenograft, 100 mg/kg/day group): 17.65 ± 0.95 g
- Body weight (g) End (HCC827 xenograft; HCC827 xenograft, 100 mg/kg/day oral): 13.82 ± 0.75 g

From publication PMC6451005, “PCC0208027, a novel tyrosine kinase inhibitor, inhibits tumor growth of NSCLC by targeting EGFR and HER2 aberrations” (Scientific Reports, 2019)
